Source: patent publication US20250326749A1, “COMPOUNDS, COMPOSITIONS, AND METHODS OF USING THEREOF” (Sionna Therapeutics Inc., priority 2022, published 2025)

target: T1, ΔF508-CFTR (Homo sapiens, UniProt P13569, DEL508-508); experiment: ΔF508-CFTR-HRP trafficking assay (cell surface expression of ΔF508-CFTR); type: cell-based; conditions: CFSMEo- cells transiently transfected with ΔF508-CFTR-HRP; test agent 3 μM, 48 h; HRP chemiluminescence
T1 construct: expressed in transfected cells; host or cells: CFSMEo- (human CF submucosal gland epithelial cells, ΔF508/Q2X), transiently transfected by nucleofection
T1 sequence (P13569 with tags, fused parts or gaps DEL508-508): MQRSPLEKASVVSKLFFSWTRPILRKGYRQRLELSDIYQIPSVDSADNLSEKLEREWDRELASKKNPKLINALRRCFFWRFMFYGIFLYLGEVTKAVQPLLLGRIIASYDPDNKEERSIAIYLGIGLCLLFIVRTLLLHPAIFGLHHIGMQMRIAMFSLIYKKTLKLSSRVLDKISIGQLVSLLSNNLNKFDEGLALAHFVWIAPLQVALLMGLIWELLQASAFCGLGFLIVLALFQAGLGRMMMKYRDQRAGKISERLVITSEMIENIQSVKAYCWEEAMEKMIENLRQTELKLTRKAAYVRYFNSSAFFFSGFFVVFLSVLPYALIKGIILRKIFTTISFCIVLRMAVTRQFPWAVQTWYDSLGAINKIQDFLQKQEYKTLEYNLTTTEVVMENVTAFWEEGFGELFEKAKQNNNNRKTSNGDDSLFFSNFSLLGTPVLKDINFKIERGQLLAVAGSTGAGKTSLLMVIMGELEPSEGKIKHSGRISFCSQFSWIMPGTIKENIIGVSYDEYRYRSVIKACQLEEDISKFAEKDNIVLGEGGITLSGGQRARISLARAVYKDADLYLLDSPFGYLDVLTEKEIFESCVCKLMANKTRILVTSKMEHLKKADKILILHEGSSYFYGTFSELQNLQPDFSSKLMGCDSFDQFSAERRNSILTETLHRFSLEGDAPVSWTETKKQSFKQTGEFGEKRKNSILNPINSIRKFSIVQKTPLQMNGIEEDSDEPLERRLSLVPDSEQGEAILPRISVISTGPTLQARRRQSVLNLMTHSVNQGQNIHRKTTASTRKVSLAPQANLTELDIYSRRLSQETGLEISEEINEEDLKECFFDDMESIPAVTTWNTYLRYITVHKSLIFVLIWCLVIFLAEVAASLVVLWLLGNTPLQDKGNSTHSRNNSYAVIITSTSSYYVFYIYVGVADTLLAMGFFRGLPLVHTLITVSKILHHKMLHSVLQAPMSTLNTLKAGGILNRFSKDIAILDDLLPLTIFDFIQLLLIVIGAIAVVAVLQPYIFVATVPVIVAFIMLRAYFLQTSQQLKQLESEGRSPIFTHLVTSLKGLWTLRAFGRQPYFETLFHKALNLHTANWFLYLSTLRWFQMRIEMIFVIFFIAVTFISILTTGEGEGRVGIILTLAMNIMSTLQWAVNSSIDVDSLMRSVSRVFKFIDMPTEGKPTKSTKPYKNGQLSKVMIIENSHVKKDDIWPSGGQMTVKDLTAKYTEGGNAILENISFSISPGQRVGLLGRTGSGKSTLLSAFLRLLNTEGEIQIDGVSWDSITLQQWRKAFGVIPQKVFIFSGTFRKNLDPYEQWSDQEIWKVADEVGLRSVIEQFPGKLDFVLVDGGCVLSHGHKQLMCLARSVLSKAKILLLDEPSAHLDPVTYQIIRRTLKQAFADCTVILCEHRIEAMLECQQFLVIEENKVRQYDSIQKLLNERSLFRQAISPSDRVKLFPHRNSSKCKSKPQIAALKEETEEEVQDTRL
Procedure, shortened: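 Surface-expressed ΔF508-CFTR measured via extracellular HRP tag: cell-impermeable chemiluminescent substrate, 5 min, signal normalized to 0.3% DMSO vehicle.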

RLUs: ΔF508-CFTR-HRP trafficking data normalized to the vehicle treated control (0.3% DMSO) | Structure (SMILES)
C (RLU 0.0 μM-3.5 μM) | C[C@H](Oc1cc(-n2nc(C(F)(F)F)c3c2[C@@H](Oc2ccc(-c4nc(=O)o[nH]4)cc2)CCC3)ccc1F)c1ccc2c(c1)OC(F)(F)O2 (single isomer, unassigned) [Example 111]
A (RLU 5.0 μM-10 μM) | C[C@H](Oc1cc(-n2nc(C(F)(F)F)c3c2[C@@H](Oc2ccc(-c4nc(=O)o[nH]4)cc2)CCC3)ccn1)c1ccc2c(c1)OC(F)(F)O2 (single isomer, unassigned) [Example 112]
C (RLU 0.0 μM-3.5 μM) | C[C@H](Oc1cc(-n2nc(C(F)(F)F)c3c2[C@H](NC(=O)C24CC(C(=O)O)(C2)C4)CCC3)ccn1)c1ccc2c(c1)OC(F)(F)O2 (single isomer, unassigned) [Example 113]
C (RLU 0.0 μM-3.5 μM) | C[C@H](Oc1cc(-n2nc(C(F)(F)F)c3c2[C@@H](NC(=O)c2ccc(C(=O)O)cc2)CCC3)ccn1)c1ccc2c(c1)OC(F)(F)O2 (single isomer, unassigned) [Example 114]
A (RLU 5.0 μM-10 μM) | C[C@H](Oc1cccc(-c2nn(CC(F)(F)F)c3c2[C@@H](Oc2ccc(C(=O)O)cc2)CCC3)n1)c1ccc2c(c1)OC(F)(F)O2 (single isomer, unassigned) [Example 126]
A (RLU 5.0 μM-10 μM) | C[C@H](Nc1cc(-c2nn(C3COC3)c3c2[C@@H](Oc2ccc(C(=O)O)cc2)CCC3)ccn1)c1ccc2c(c1)OC(F)(F)O2 (single isomer, unassigned) [Example 127]
B (RLU 3.5 μM-5.0 μM) | CC(C)n1nc(-c2ccnc(N[C@@H](C)c3ccc4c(c3)OC(F)(F)O4)c2)c2c1CCC[C@@H]2Oc1ccc(C(=O)O)cc1 (single isomer, unassigned) [Example 128]
B (RLU 3.5 μM-5.0 μM) | C[C@H](Nc1cc(-c2nn(CC(F)(F)F)c3c2[C@@H](Oc2ccc(C(=O)O)cc2)CCC3)ccn1)c1ccc2c(c1)OC(F)(F)O2 (single isomer, unassigned) [Example 129]
A (RLU 5.0 μM-10 μM) | C[C@H](Oc1cc(-n2nc(C(F)(F)F)c3c2C(O[C@H]2CC[C@H](C(=O)O)CC2)CCC3)cnc1F)c1ccc2c(c1)OC(F)(F)O2 (stereo in doubt) [79 (P2), 4-[[(7R)-1-[5-[(1S)-1-(2,2-difluoro-1,3-benzodioxol-5-yl)ethoxy]-6-fluoro-3-pyridyl]-3-(trifluoromethyl)-4,5,6,7-tetrahydroindazol-7-yl]oxy]cyclohexanecarboxylic acid]
B (RLU 3.5 μM-5.0 μM) | C[C@H](Oc1cc(-n2nc(C(F)(F)F)c3c2C(O[C@H]2CC[C@H](C(=O)O)CC2)CCC3)cc(F)n1)c1ccc2c(c1)OC(F)(F)O2 (stereo in doubt) [80 (P2), 4-[[(7R)-1-[2-[(1S)-1-(2,2-difluoro-1,3-benzodioxol-5-yl)ethoxy]-6-fluoro-4-pyridyl]-3-(trifluoromethyl)-4,5,6,7-tetrahydroindazol-7-yl]oxy]cyclohexanecarboxylic acid]
B (RLU 3.5 μM-5.0 μM) | CC(Oc1cc(-n2nc(C(F)(F)F)c3c2C(OC24CC(C(=O)O)(C2)C4)CCC3)ccn1)c1cc2c(cn1)OC(F)(F)O2 (stereo in doubt) [Example 46, 3-[[1-[2-[(1R)-1-(2,2-difluoro-[1,3]dioxolo[4,5-c]pyridine-6-yl)ethoxy]-4-pyridyl]-3-(trifluoromethyl)-4,5,6,7-tetrahydroindazol-7-yl]oxy]bicyclo[1.1.1]pentane-1-carboxylic acid]
B (RLU 3.5 μM-5.0 μM) | C[C@H](Oc1cc(-n2nc(C(F)(F)F)c3c2N(Cc2ccc(C(=O)O)cc2)CCC3)ccn1)c1ccc2c(c1)OC(F)(F)O2 [Example 8, 4-[[1-[2-[(1S)-1-(2,2-difluoro-1,3-benzodioxol-5-yl)ethoxy]-4-pyridyl]-3-(trifluoromethyl)-5,6-dihydro-4H-pyrazolo[3,4-b]pyridine-7-yl]methyl]benzoic acid]
B (RLU 3.5 μM-5.0 μM) | CC(Oc1cccc(-n2nc(C(F)(F)F)c3c2N(CC24CC(C(=O)O)(C2)C4)CCC3)c1)c1ccc2c(c1)OC(F)(F)O2 (stereo not drawn) [Example 10, 3-[[1-[3-[1-(2,2-difluoro-1,3-benzodioxol-5-yl)ethoxy]phenyl]-3-(trifluoromethyl)-5,6-dihydro-4H-pyrazolo[3,4-b]pyridine-7-yl]methyl]bicyclo[1.1.1]pentane-1-carboxylic acid]
A (RLU 5.0 μM-10 μM) | C[C@H](Oc1cccc(-n2nc(C(F)(F)F)c3c2N(CC24CC(C(=O)O)(C2)C4)CCC3)c1)c1ccc2c(c1)OC(F)(F)O2 [Example 11, 3-[[1-[3-[(1S)-1-(2,2-difluoro-1,3-benzodioxol-5-yl)ethoxy]phenyl]-3-(trifluoromethyl)-5,6-dihydro-4H-pyrazolo[3,4-b]pyridine-7-yl]methyl]bicyclo[1.1.1]pentane-1-carboxylic acid]
B (RLU 3.5 μM-5.0 μM) | C[C@H](Oc1cncc(-n2nc(C(F)(F)F)c3c2N(C[C@H]2CC[C@H](C(=O)O)CC2)CCC3)c1)c1ccc2c(c1)OC(F)(F)O2 [Example 13, Trans-4-[[1-[5-[(1S)-1-(2,2-difluoro-1,3-benzodioxol-5-yl)ethoxy]-3-pyridyl]-3-(trifluoromethyl)-5,6-dihydro-4H-pyrazolo[3,4-b]pyridine-7-yl]methyl]cyclohexanecarboxylic acid]
A (RLU 5.0 μM-10 μM) | C[C@H](Oc1cccc(-n2nc(C(F)(F)F)c3c2N(C(=O)N2CCC(C(=O)O)CC2)CCC3)c1)c1ccc2c(c1)OC(F)(F)O2 [Example 18, 1-[1-[3-[(1S)-1-(2,2-difluoro-1,3-benzodioxol-5-yl)ethoxy]phenyl]-3-(trifluoromethyl)-5,6-dihydro-4H-pyrazolo[3,4-b]pyridine-7-carbonyl]piperidine-4-carboxylic acid]
B (RLU 3.5 μM-5.0 μM) | CC(Oc1cccc(-n2nc(C(F)(F)F)c3c2C(Oc2ccc(C(=O)O)cc2)CCC3)c1)c1ccc2c(c1)OC(F)(F)O2 (stereo not drawn) [Example 19, 4-[[1-[3-[1-(2,2-difluoro-1,3-benzodioxol-5-yl)ethoxy]phenyl]-3-(trifluoromethyl)-4,5,6,7-tetrahydroindazol-7-yl]oxy]benzoic acid]
B (RLU 3.5 μM-5.0 μM) | O=C(O)c1ccc(OC2CCCc3c(C(F)(F)F)nn(-c4cccc(OCc5ccc6c(c5)OC(F)(F)O6)c4)c32)cc1 (stereo not drawn) [Example 20, 4-[[1-[3-[(2,2-difluoro-1,3-benzodioxol-5-yl)methoxy]phenyl]-3-(trifluoromethyl)-4,5,6,7-tetrahydroindazol-7-yl]oxy]benzoic acid]
A (RLU 5.0 μM-10 μM) | C[C@@H](Oc1cc(-n2nc(C(F)(F)F)c3c2C(Oc2ccc(C(=O)O)cc2)CCC3)ccn1)c1ccc2c(c1)OC(F)(F)O2 (stereo partly drawn) [Example 21, 4-[[1-[2-[(1R)-1-(2,2-difluoro-1,3-benzodioxol-5-yl)ethoxy]-4-pyridyl]-3-(trifluoromethyl)-4,5,6,7-tetrahydroindazol-7-yl]oxy]benzoic acid]
B (RLU 3.5 μM-5.0 μM) | C[C@H](Oc1cc(-n2nc(C(F)(F)F)c3c2C(Oc2ccc(C(=O)O)cc2)CCC3)ccn1)c1ccc2c(c1)OC(F)(F)O2 (stereo partly drawn) [Example 22, 4-[[1-[2-[(1S)-1-(2,2-difluoro-1,3-benzodioxol-5-yl)ethoxy]-4-pyridyl]-3-(trifluoromethyl)-4,5,6,7-tetrahydroindazol-7-yl]oxy]benzoic acid]
B (RLU 3.5 μM-5.0 μM) | C[C@H](Oc1cccc(-n2nc(C(F)(F)F)c3c2C(Oc2ccc(C(=O)O)cc2)CCC3)c1)c1ccc2c(c1)OC(F)(F)O2 (stereo partly drawn) [Example 29]
B (RLU 3.5 μM-5.0 μM) | C[C@@H](Oc1cccc(-n2nc(C(F)(F)F)c3c2C(Oc2ccc(C(=O)O)cc2)CCC3)c1)c1cc2c(cn1)OC(F)(F)O2 (stereo partly drawn) [Example 30]
C (RLU 0.0 μM-3.5 μM) | C[C@H](Oc1cccc(-n2nc(C(F)(F)F)c3c2C(Oc2ccc(C(=O)O)cc2)CCC3)c1)c1cc2c(cn1)OC(F)(F)O2 (stereo partly drawn) [Example 31]
B (RLU 3.5 μM-5.0 μM) | C[C@@H](Oc1cccc(-n2nc(C(F)(F)F)c3c2C(Oc2ccc(C(=O)O)cc2)CCC3)c1)c1cc2c(cc1F)OC(F)(F)O2 (stereo partly drawn) [Example 32, 4-[[1-[3-[(1R)-1-(2,2,6-trifluoro-1,3-benzodioxol-5-yl)ethoxy]phenyl]-3-(trifluoromethyl)-4,5,6,7-tetrahydroindazol-7-yl]oxy]benzoic acid]
B (RLU 3.5 μM-5.0 μM) | C[C@H](Oc1cccc(-n2nc(C(F)(F)F)c3c2C(Oc2ccc(C(=O)O)cc2)CCC3)c1)c1cc2c(cc1F)OC(F)(F)O2 (stereo partly drawn) [Example 33, 4-[[1-[3-[(1S)-1-(2,2,6-trifluoro-1,3-benzodioxol-5-yl)ethoxy]phenyl]-3-(trifluoromethyl)-4,5,6,7-tetrahydroindazol-7-yl]oxy]benzoic acid]
B (RLU 3.5 μM-5.0 μM) | Cc1cc(OC2CCCc3c(C(F)(F)F)nn(-c4cccc(O[C@@H](C)c5cc6c(cc5F)OC(F)(F)O6)c4)c32)ccc1C(=O)O (stereo partly drawn) [Example 35]
A (RLU 5.0 μM-10 μM) | C[C@@H](Oc1cccc(-n2nc(C(F)(F)F)c3c2C(O[C@H]2CC[C@H](C(=O)O)CC2)CCC3)c1)c1ccc2c(c1)OC(F)(F)O2 (stereo partly drawn) [Example 38]
